Peptide text beside a SMILES is read from it. * marks the point of attachment. Docosanoyl = CCCCCCCCCCCCCCCCCCCCCC(=O)*; Arachidoyl = CCCCCCCCCCCCCCCCCCCC(=O)*; Stearoyl = CCCCCCCCCCCCCCCCCC(=O)*; X1 = CCCCCCCCCCCCCCCCCCCCCCCC(=O)*; Lauroyl = CCCCCCCCCCCC(=O)*; Octanoyl = CCCCCCCC(=O)*
Experiments:
[1] = target: T1, HIV-1HXB2 Env (Human immunodeficiency virus type 1 group M subtype B, UniProt P04578); assay: HIV-1HXB2 Env-mediated cell-cell fusion (HL2/3 effector, TZM-bl target, luciferase reporter); format: cell-based
T1 construct: HL2/3 cells, which stably express high levels of Env, Gag, Tat, Rev, and Nef proteins of the integrated HIV-1 molecular clone HXB2/3gpt; host or cells: HL2/3 cells (effector), cocultured with TZM-bl target cells
T1 sequence (P04578 512-856): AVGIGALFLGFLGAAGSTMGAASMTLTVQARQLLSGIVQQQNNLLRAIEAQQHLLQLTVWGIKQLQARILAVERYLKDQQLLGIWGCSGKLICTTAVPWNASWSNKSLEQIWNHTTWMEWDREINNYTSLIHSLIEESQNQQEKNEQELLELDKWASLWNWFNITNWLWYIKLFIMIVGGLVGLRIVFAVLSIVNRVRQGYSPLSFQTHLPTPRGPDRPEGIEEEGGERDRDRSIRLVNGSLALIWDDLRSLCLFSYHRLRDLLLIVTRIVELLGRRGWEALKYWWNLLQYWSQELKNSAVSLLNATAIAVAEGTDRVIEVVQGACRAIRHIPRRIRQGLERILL
Procedure: The inhibitory activities of inhibitors on HIV-1HXB2 Env-mediated cell-cell fusion were determined by a reporter gene assay based on the activation of an HIV LTR-driven luciferase cassette in TZM-bl cells (target) by HIV-1 tat from HL2/3 cells (effector). Briefly, 1 x 10^4/well of TZM-bl cells were plated in 96-well plates and incubated at 37°C overnight. Then, 3 x 10^4/well of HL2/3 cells were cocultured with target cells for 6 h at 37°C in the presence or absence of an inhibitor at graded concentrations. Luciferase activity was measured using luciferase assay reagents and a Luminescence Counter (Promega, Madison, Wisconsin, USA).

[2] = tested on: HIV-1NL4-3(D36G) pseudovirus; format: cell-based; settings: Fig 1; NL4-3(D36G) pseudovirus; mean ± SD of three assays in triplicate; read-out: Anti-HIV activity (IC50, pM) NL4-3 entry
Procedure: The inhibitory activities of inhibitors against HIV-1 pseudoviruses and replication-competent isolates were measured as described previously. Briefly, HIV-1 pseudoviruses were generated via the cotransfection of HEK293T cells with an Env-expressing plasmid and a backbone plasmid that encodes Env-defective, luciferase-expressing HIV-1 genome (pSG3Δenv). Viral stocks of replication-competent HIV-1 isolates were generated by transfecting viral molecular clones into HEK293T cells. […] Inhibitors were prepared in 3-fold dilutions, mixed with 100 TCID50 of a virus, and then incubated for 1 h at room temperature. […] Luciferase activity was measured as described above.

[3] = target: HIV-1JRCSF; format: cell-based; settings: Fig 1; replication-competent virus; mean ± SD of three assays in triplicate; read-out: Anti-HIV activity (IC50, pM) JRCSF infection
Procedure: The inhibitory activities of inhibitors against HIV-1 pseudoviruses and replication-competent isolates were measured as described previously. Briefly, HIV-1 pseudoviruses were generated via the cotransfection of HEK293T cells with an Env-expressing plasmid and a backbone plasmid that encodes Env-defective, luciferase-expressing HIV-1 genome (pSG3Δenv). Viral stocks of replication-competent HIV-1 isolates were generated by transfecting viral molecular clones into HEK293T cells. Culture supernatants were harvested at 48 h posttransfection, and 50% tissue culture infectious doses (TCID50) in TZM-bl cells were determined. Inhibitors were prepared in 3-fold dilutions, mixed with 100 TCID50 of a virus, and then incubated for 1 h at room temperature. The mixture was added to TZM-bl cells (10^4/well), and the cells were incubated for additional 48 h at 37°C. Luciferase activity was measured as described above.

[4] = target: T2, gp41 NHR-derived target mimic peptide N39 (Human immunodeficiency virus type 1 group M subtype B, UniProt P04578); assay: CD spectroscopy of lipopeptides in complex with target mimic peptide N39; format: binding, HIV-1; parameters: [θ]222: unit not given here; settings: complex with N39, each peptide 10 μM in PBS; representative of 2 assays
T2 construct: the gp41 NHR-derived target mimic peptide N39
T2 sequence (P04578 528-566): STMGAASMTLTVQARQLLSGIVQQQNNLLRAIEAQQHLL
Source text: Spectra were corrected by subtracting a solvent blank.

[5] = lipopeptide alone, 10 μM in PBS, representative of 2 assays; for Helix content (%): [θ]222 / -33,000

| Compound | IC50 [1] | IC50 [2] | IC50 [3] | Helix content (%) [4] | [θ]222 [4] | Helix content (%) [5] | Tm (°C) ([5]; ellipticity at 222 nm, 20-98°C, 2°C/min) |
| --- | --- | --- | --- | --- | --- | --- | --- |
| CCCCCCCCCCCCCCCCCCCCCCCC(=O)NCCCC[C@H](NC(=O)[C@H](CCC(=O)O)NC(=O)[C@H](CC(C)C)NC(=O)[C@H](CCCCN)NC(=O)[C@H](CCCCN)NC(=O)[C@H](CC(C)C)NC(=O)[C@H](CCC(=O)O)NC(=O)[C@H](CCC(=O)O)NC(=O)[C@H](CCC(=O)O)NC(=O)[C@H](CC(N)=O)NC(=O)[C@H](CCCCN)NC(=O)[C@H](CCCCN)NC(=O)[C@H](CCC(N)=O)NC(=O)[C@H](CCC(N)=O)NC(=O)[C@H](CCC(=O)O)NC(=O)[C@H](CCC(=O)O)NC(=O)[C@H](C)NC(=O)[C@H](CCCCN)NC(=O)[C@H](CCCCN)NC(=O)[C@H](CC(C)C)NC(=O)[C@H](CC(C)C)NC(=O)[C@H](CCC(=O)O)NC(=O)[C@H](CCC(=O)O)NC(=O)[C@@H](NC(=O)[C@H](CCCCN)NC(=O)[C@H](CCC(N)=O)NC(=O)[C@H](CCC(=O)O)NC(=O)[C@H](Cc1c[nH]c2ccccc12)NC(C)=O)[C@@H](C)CC)C(N)=O [LP-77] (Ac-WEQKIEELLKKAEEQQKKNEEELKKLEK(X1)-NH2) | 0.161 ± 0.00664 nM | 7.98 ± 0.97 pM | 12 ± 1.34 pM |  |  |  |  |
| CCCCCCCCCCCCCCCCCCCCCC(=O)NCCCC[C@H](NC(=O)[C@H](CCC(=O)O)NC(=O)[C@H](CC(C)C)NC(=O)[C@H](CCCCN)NC(=O)[C@H](CCCCN)NC(=O)[C@H](CC(C)C)NC(=O)[C@H](CCC(=O)O)NC(=O)[C@H](CCC(=O)O)NC(=O)[C@H](CCC(=O)O)NC(=O)[C@H](CC(N)=O)NC(=O)[C@H](CCCCN)NC(=O)[C@H](CCCCN)NC(=O)[C@H](CCC(N)=O)NC(=O)[C@H](CCC(N)=O)NC(=O)[C@H](CCC(=O)O)NC(=O)[C@H](CCC(=O)O)NC(=O)[C@H](C)NC(=O)[C@H](CCCCN)NC(=O)[C@H](CCCCN)NC(=O)[C@H](CC(C)C)NC(=O)[C@H](CC(C)C)NC(=O)[C@H](CCC(=O)O)NC(=O)[C@H](CCC(=O)O)NC(=O)[C@@H](NC(=O)[C@H](CCCCN)NC(=O)[C@H](CCC(N)=O)NC(=O)[C@H](CCC(=O)O)NC(=O)[C@H](Cc1c[nH]c2ccccc12)NC(C)=O)[C@@H](C)CC)C(N)=O [LP-78] (Ac-WEQKIEELLKKAEEQQKKNEEELKKLEK(Docosanoyl)-NH2) | 0.0544 ± 0.00709 nM | 3.73 ± 0.45 pM | 7.16 ± 2.01 pM |  |  |  |  |
| CCCCCCCCCCCCCCCCCCCC(=O)NCCCC[C@H](NC(=O)[C@H](CCC(=O)O)NC(=O)[C@H](CC(C)C)NC(=O)[C@H](CCCCN)NC(=O)[C@H](CCCCN)NC(=O)[C@H](CC(C)C)NC(=O)[C@H](CCC(=O)O)NC(=O)[C@H](CCC(=O)O)NC(=O)[C@H](CCC(=O)O)NC(=O)[C@H](CC(N)=O)NC(=O)[C@H](CCCCN)NC(=O)[C@H](CCCCN)NC(=O)[C@H](CCC(N)=O)NC(=O)[C@H](CCC(N)=O)NC(=O)[C@H](CCC(=O)O)NC(=O)[C@H](CCC(=O)O)NC(=O)[C@H](C)NC(=O)[C@H](CCCCN)NC(=O)[C@H](CCCCN)NC(=O)[C@H](CC(C)C)NC(=O)[C@H](CC(C)C)NC(=O)[C@H](CCC(=O)O)NC(=O)[C@H](CCC(=O)O)NC(=O)[C@@H](NC(=O)[C@H](CCCCN)NC(=O)[C@H](CCC(N)=O)NC(=O)[C@H](CCC(=O)O)NC(=O)[C@H](Cc1c[nH]c2ccccc12)NC(C)=O)[C@@H](C)CC)C(N)=O [LP-79] (Ac-WEQKIEELLKKAEEQQKKNEEELKKLEK(Arachidoyl)-NH2) | 0.0387 ± 0.00447 nM | 4.39 ± 0.67 pM | 5.7 ± 0.86 pM | 55% | -18030 | 48% | 56 °C |
| CCCCCCCCCCCC(=O)NCCCC[C@H](NC(=O)[C@H](CCC(=O)O)NC(=O)[C@H](CC(C)C)NC(=O)[C@H](CCCCN)NC(=O)[C@H](CCCCN)NC(=O)[C@H](CC(C)C)NC(=O)[C@H](CCC(=O)O)NC(=O)[C@H](CCC(=O)O)NC(=O)[C@H](CCC(=O)O)NC(=O)[C@H](CC(N)=O)NC(=O)[C@H](CCCCN)NC(=O)[C@H](CCCCN)NC(=O)[C@H](CCC(N)=O)NC(=O)[C@H](CCC(N)=O)NC(=O)[C@H](CCC(=O)O)NC(=O)[C@H](CCC(=O)O)NC(=O)[C@H](C)NC(=O)[C@H](CCCCN)NC(=O)[C@H](CCCCN)NC(=O)[C@H](CC(C)C)NC(=O)[C@H](CC(C)C)NC(=O)[C@H](CCC(=O)O)NC(=O)[C@H](CCC(=O)O)NC(=O)[C@@H](NC(=O)[C@H](CCCCN)NC(=O)[C@H](CCC(N)=O)NC(=O)[C@H](CCC(=O)O)NC(=O)[C@H](Cc1c[nH]c2ccccc12)NC(C)=O)[C@@H](C)CC)C(N)=O [LP-81] (Ac-WEQKIEELLKKAEEQQKKNEEELKKLEK(Lauroyl)-NH2) | 0.353 ± 0.0763 nM | 111 ± 68.1 pM | 183 ± 45.4 pM | 49% | -16313 | 37% |  |
| CCCCCCCC(=O)NCCCC[C@H](NC(=O)[C@H](CCC(=O)O)NC(=O)[C@H](CC(C)C)NC(=O)[C@H](CCCCN)NC(=O)[C@H](CCCCN)NC(=O)[C@H](CC(C)C)NC(=O)[C@H](CCC(=O)O)NC(=O)[C@H](CCC(=O)O)NC(=O)[C@H](CCC(=O)O)NC(=O)[C@H](CC(N)=O)NC(=O)[C@H](CCCCN)NC(=O)[C@H](CCCCN)NC(=O)[C@H](CCC(N)=O)NC(=O)[C@H](CCC(N)=O)NC(=O)[C@H](CCC(=O)O)NC(=O)[C@H](CCC(=O)O)NC(=O)[C@H](C)NC(=O)[C@H](CCCCN)NC(=O)[C@H](CCCCN)NC(=O)[C@H](CC(C)C)NC(=O)[C@H](CC(C)C)NC(=O)[C@H](CCC(=O)O)NC(=O)[C@H](CCC(=O)O)NC(=O)[C@@H](NC(=O)[C@H](CCCCN)NC(=O)[C@H](CCC(N)=O)NC(=O)[C@H](CCC(=O)O)NC(=O)[C@H](Cc1c[nH]c2ccccc12)NC(C)=O)[C@@H](C)CC)C(N)=O [LP-82] (Ac-WEQKIEELLKKAEEQQKKNEEELKKLEK(Octanoyl)-NH2) | 3.21 ± 1.43 nM | 1010 ± 344 pM | 3710 ± 1080 pM | 39% | -12910 | 22% |  |
| CCCCCCCCCCCCCCCCCC(=O)NCCCC[C@H](NC(=O)[C@H](CCC(=O)O)NC(=O)[C@H](CC(C)C)NC(=O)[C@H](CCCCN)NC(=O)[C@H](CCCCN)NC(=O)[C@H](CC(C)C)NC(=O)[C@H](CCC(=O)O)NC(=O)[C@H](CCC(=O)O)NC(=O)[C@H](CCC(=O)O)NC(=O)[C@H](CC(N)=O)NC(=O)[C@H](CCCCN)NC(=O)[C@H](CCCCN)NC(=O)[C@H](CCC(N)=O)NC(=O)[C@H](CCC(N)=O)NC(=O)[C@H](CCC(=O)O)NC(=O)[C@H](CCC(=O)O)NC(=O)[C@H](C)NC(=O)[C@H](CCCCN)NC(=O)[C@H](CCCCN)NC(=O)[C@H](CC(C)C)NC(=O)[C@H](CC(C)C)NC(=O)[C@H](CCC(=O)O)NC(=O)[C@H](CCC(=O)O)NC(=O)[C@@H](NC(=O)[C@H](CCCCN)NC(=O)[C@H](CCC(N)=O)NC(=O)[C@H](CCC(=O)O)NC(C)=O)[C@@H](C)CC)C(N)=O [LP-88] (Ac-EQKIEELLKKAEEQQKKNEEELKKLEK(Stearoyl)-NH2) | 0.0144 ± 0.00137 nM | 4.26 ± 1.3 pM | 4.29 ± 0.58 pM | 55% | -18242 | 34% |  |
| CCCCCCCCCCCCCCCCCC(=O)NCCCC[C@H](NC(=O)[C@H](CCC(=O)O)NC(=O)[C@H](CC(C)C)NC(=O)[C@H](CCCCN)NC(=O)[C@H](CCCCN)NC(=O)[C@H](CC(C)C)NC(=O)[C@H](CCC(=O)O)NC(=O)[C@H](CCC(=O)O)NC(=O)[C@H](CCC(=O)O)NC(=O)[C@H](CC(N)=O)NC(=O)[C@H](CCCCN)NC(=O)[C@H](CCCCN)NC(=O)[C@H](CCC(N)=O)NC(=O)[C@H](CCC(N)=O)NC(=O)[C@H](CCC(=O)O)NC(=O)[C@H](CCC(=O)O)NC(=O)[C@H](C)NC(=O)[C@H](CCCCN)NC(=O)[C@H](CCCCN)NC(=O)[C@H](CC(C)C)NC(=O)[C@H](CC(C)C)NC(=O)[C@H](CCC(=O)O)NC(=O)[C@H](CCC(=O)O)NC(=O)[C@@H](NC(=O)[C@H](CCCCN)NC(C)=O)[C@@H](C)CC)C(N)=O [LP-89] (Ac-KIEELLKKAEEQQKKNEEELKKLEK(Stearoyl)-NH2) | 0.0733 ± 0.021 nM | 10.8 ± 3.14 pM | 12.4 ± 1.22 pM | 51% | -16781 | 43% |  |
| Ac-WEQKIEELLKKAEEQQKKNEEELKKLEK-NH2 [Lipopeptide P-52] | 1.34 ± 0.119 nM | 2620 ± 235 pM | 2170 ± 146 pM |  |  |  |  |
